Laboratory results taken from patent publication US20130046003A1, “PHARMACEUTICAL COMPOSITIONS COMPRISING 4-BROMO-N-(IMIDAZOLIDIN-2-YLIDENE)-1H-BENZIMIDAZOL-5-AMINE FOR TREATING RETINAL DISEASES” (priority 2011, published 2013).

Key:
[1] = test system: retina damage caused by blue light; settings: rats, 1 mg/kg IP one hour before 4 hours blue light exposure (6100-6500 lux); OCT at 7 days post exposure; versus saline
Description: Drugs were administered via intraperitoneal injection (IP) at a dose of 1 mg/kg one hour before blue light exposure.
Twenty 4-month old male Sprague-Dawley rats (body weight 470-550 g) were used in this study. The animals were exposed to room light on a 12 hour lighV12 hour dark cycle before the experiment. All animals were dark adapted overnight (16-20 hours) before blue light exposure. Under the intensity of 6100-6500 lux, rats were exposed to blue light for 4 hours. After the blue light, rats were placed in the dark for another 3 days before returning to normal 12 hour light/12 hour dark. Ocular Coherence Tomography (OCT) measurement was performed at 7 days post blue light exposure.

[2] = test system: alpha 2-adrenergic receptor; settings: known from prior art; all three alpha-2 receptor subtypes; cited from earlier work
[3] = normal DB rabbits, intravenous route, 10-30 minutes post-dose
Description: Rabbits were dosed with 4-bromo-N-(imidazolidin-2-ylidene)-1H-benzimidazol-5-amine through intravenous route. Spatial sweep visual evoked potential (sVEP) acuity was assessed with PowerDiva software version 1.8. Recordings were made bilaterally in conscious animals.

[4] = rats, after an oral dose of brimonidine tartrate; cited from earlier work

SMILES: Brc1c(N=C2NCCN2)ccc2nccnc12 [brimonidine, (5-bromo-quinoxalin-6-yl)-imidazolidin-2-ylidene-amine, reference compound]
- protection of the retina from damage caused by blue light (retinal thickness measured by OCT) [1]: significantly reduced and protected the retina from the damage caused by blue light

SMILES: Brc1c(N=C2NCCN2)ccc2[nH]cnc12 [4-bromo-N-(imidazolidin-2-ylidene)-1H-benzimidazol-5-amine]
- alpha 2-adrenergic receptor agonist activity [2]: potent alpha 2-adrenergic receptor pan agonist, activating all three alpha-2 receptor subtypes
- visual acuity (sVEP acuity) [3]: enhanced visual acuity
- amount found in urine [4]: trace amounts
